Test results taken from ChEMBL document CHEMBL1201862, “PubChem BioAssay data set” (2004).
Structures can show the parent of a compound that is named as a salt. Calls of active or inactive are those of the source. For most assays here, no stated cut-off is given here; in the data, actives have a measured EC50 and inactives only a lower limit.

Assays:
[1] = Luminescence Cell-Based Dose Confirmation HTS to Identify Activators of 5'UTR Stem-Loop Driven Alpha-Synuclein mRNA Translation in H4 Neuroglioblastoma Cells. [Related pubchem assays: 1829 (Project Summary), 1814 (Primary HTS)]; type: functional
[2] = Luminescence Cell-Based Dose Response HTS to Identify Activators of Luciferase Translation or Activity in H4 […] Cells. [Related pubchem assays: 1829 (Project Summary), 1814 (Primary HTS)]; type: functional
[3] = test system: H4; assay: Luminescence Cell-Based Dose Response HTS to Identify Activators of 5'UTR Stem-Loop Driven Prion Protein mRNA Translation in H4 Neuroglioblastoma Cells. [Related pubchem assays: 1829 (Project Summary), 1814 (Primary HTS)]; type: functional; conditions: Homo sapiens
[4] = cells; type: functional
[5] = biological target: Cytochrome P450 3A4 (Homo sapiens, UniProt P08684); conditions: Potency;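 further: confirmatory qHTS run detecting inhibitors and substrates of CYP3A4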
[6] = biological target: FAD-linked sulfhydryl oxidase ALR (Homo sapiens, UniProt P55789); assay: ALR-catalysed DTT oxidation blockers – biochemical, H2O2 detection, luminescence, cherry-pick, dose response (AID 493248)
[7] = Trypanosoma cruzi growth suppression in host cells – NIH3T3 host cells, beta-gal luminescence, confirmation (AID 2044); type: functional, cell-based;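 further: intracellular parasites grown in NIH/3T3 mouse fibroblasts as host cells; luminescent beta-galactosidase reporter signal from transgenic T. cruzi replicating inside host cells; inhibitors lower the luminescence signal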
[8] = microbe, parasite or virus in culture; type: functional; conditions: Mycobacterium tuberculosis
[9] = viability of HCT116 lacking mutant beta-catenin – cell-based, human colon tumor, dose response (AID 1045); type: functional;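 further: HCT116 colon tumor cells with beta catenin knocked out; cells exposed to compound for 60 hours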
[10] = NIH3T3 cell viability loss – ATP luminescence, mouse fibroblasts, counter-screen, dose response (AID 2010); type: functional, cell-based;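 further: cells exposed to compound for about 90 hours before reading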
[11] = viability of PTEN-deleted HCT116 cells – cell-based, HCT116 PTEN knockout, dose response (AID 1047); type: functional;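 further: HCT116 colon tumor cells with PTEN knocked out; cells exposed to compound for 60 hours before readout; potency for loss of cell viability measured by luminescence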
[12] = biological target: T1, Ubiquitin-conjugating enzyme E2 N (Homo sapiens, UniProt P61088); type: functional;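 further: Dose-response confirmation in a TR-FRET assay detecting UBC13-driven polyubiquitin chain formation, inhibition measured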
T1 sequence (P61088 whole entry): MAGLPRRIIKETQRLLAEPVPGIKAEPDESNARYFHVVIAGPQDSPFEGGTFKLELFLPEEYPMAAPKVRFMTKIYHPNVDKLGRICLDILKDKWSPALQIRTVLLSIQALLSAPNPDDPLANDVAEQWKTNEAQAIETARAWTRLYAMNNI

[13] = biological target: T2, DNA repair protein RAD52 homolog (Homo sapiens, UniProt P43351); type: functional, biochemical
T2 sequence (P43351 whole entry): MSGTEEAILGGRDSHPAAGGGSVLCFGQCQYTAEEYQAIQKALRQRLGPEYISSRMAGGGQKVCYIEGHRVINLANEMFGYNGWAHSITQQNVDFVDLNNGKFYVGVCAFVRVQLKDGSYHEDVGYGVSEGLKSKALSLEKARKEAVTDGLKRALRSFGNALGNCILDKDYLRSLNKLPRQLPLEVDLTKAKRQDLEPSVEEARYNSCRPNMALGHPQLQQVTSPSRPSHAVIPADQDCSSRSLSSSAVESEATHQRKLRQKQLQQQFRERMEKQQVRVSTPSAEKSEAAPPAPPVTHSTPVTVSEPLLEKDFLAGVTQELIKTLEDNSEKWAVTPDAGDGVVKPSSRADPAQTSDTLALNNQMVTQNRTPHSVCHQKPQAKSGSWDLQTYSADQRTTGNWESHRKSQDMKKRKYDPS

[14] = test system: BJ; assay: BJ-TERT fibroblast viability loss – cell-based, RAS-independent, luminescence, dose response (AID 1933); type: functional; conditions: Homo sapiens
[15] = test system: BJ; assay: BJ-TERT-LT-ST fibroblast viability loss – cell-based, RAS-independent, luminescence, dose response (AID 1935); type: functional; conditions: Homo sapiens;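 further: BJ fibroblasts immortalized with TERT plus LT and ST oncogenes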
[16] = DRD fibroblast viability loss – cell-based, non-viral oncogenic, luminescence, dose response (AID 1934); type: functional; conditions: Homo sapiens
[17] = biological target: Luciferin 4-monooxygenase (Photinus pyralis, UniProt P08659); assay: inhibition of purified Photinus pyralis luciferase – biochemical, luminescence, dose response (AID 1891)
[18] = test system: BJ; assay: cells; type: functional, cell-based; conditions: Homo sapiens
[19] = Luminescence Cell-Based Dose Confirmation HTS to Identify Inhibitors of Platelet Dense Granule Release. [Related pubchem assays: 1663 (Primary HTS), 1678 (Summary of Project)]; type: functional

Sequence of Cytochrome P450 3A4 (P08684 whole entry): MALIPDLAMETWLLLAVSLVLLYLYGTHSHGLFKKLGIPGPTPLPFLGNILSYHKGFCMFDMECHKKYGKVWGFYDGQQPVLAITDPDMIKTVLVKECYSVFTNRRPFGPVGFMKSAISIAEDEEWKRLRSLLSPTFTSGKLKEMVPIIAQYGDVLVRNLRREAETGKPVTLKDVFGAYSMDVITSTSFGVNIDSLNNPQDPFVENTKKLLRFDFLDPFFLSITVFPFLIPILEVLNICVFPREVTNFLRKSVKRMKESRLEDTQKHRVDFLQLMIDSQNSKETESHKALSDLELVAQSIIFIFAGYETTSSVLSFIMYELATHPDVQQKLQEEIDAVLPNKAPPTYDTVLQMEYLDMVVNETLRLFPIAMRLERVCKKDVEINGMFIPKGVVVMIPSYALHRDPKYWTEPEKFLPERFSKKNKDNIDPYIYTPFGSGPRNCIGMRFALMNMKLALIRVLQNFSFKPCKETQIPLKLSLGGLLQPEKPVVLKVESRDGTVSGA
Sequence of FAD-linked sulfhydryl oxidase ALR (P55789 whole entry): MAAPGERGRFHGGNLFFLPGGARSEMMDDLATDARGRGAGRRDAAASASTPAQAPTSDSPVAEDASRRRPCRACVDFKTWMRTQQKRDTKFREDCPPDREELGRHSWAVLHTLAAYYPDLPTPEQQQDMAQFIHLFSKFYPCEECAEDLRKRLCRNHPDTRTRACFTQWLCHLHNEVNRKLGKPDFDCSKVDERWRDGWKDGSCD
Sequence of Luciferin 4-monooxygenase (P08659 whole entry): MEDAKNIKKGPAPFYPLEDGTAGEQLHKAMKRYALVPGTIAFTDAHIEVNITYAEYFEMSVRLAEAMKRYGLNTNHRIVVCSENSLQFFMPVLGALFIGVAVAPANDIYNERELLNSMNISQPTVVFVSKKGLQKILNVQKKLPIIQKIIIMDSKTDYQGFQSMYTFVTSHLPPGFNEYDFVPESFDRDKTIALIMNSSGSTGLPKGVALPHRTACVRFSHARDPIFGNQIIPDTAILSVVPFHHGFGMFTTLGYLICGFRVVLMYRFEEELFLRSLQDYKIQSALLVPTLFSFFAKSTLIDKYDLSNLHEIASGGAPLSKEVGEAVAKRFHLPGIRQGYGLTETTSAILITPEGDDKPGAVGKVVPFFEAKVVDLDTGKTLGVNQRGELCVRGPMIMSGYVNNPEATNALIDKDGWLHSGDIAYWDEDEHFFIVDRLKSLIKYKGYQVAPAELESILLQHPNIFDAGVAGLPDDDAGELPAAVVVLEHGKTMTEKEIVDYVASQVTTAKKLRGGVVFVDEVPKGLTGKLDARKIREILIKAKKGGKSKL

Compound | EC50 [1] | EC50 [2] | EC50 [3] | AC50 [5] | further results
Cc1occc1C(=O)N/N=C/c1cccc2ccccc12 | 0.129 µM (active) | 0.19 µM (active) | 52.9 µM (active) |  | 
O=C(NCCc1c[nH]c2ccccc12)c1cc2ccccc2oc1=O | 0.481 µM (active) | 119 µM (active) | 11 µM (active) |  | IC50 [4]: 0.34 µM (active)
COc1cc(C)c(C(=O)Oc2cc(C)c(C(=O)O)c(O)c2C)c(OC)c1C [DIFFRACTAIC ACID] |  |  |  | 25.1 µM (inconclusive) | AC50 [6]: 0.784 µM (active)
CN1CCCCC1c1ccc(-c2cccnc2)nc1 (configuration not stated) [ANABASAMINE HYDROCHLORIDE] |  |  |  | 12.6 µM (inconclusive) | 
CC(C)OC(=O)c1sc2nc3c(cc2c1N)C(=O)CCC3 | 41.9 µM (active) | 73.1 µM (active) | 41.6 µM (active) |  | 
CS(C)(=O)=O [DIMETHYL SULFONE] |  |  |  | 20 µM (inconclusive) | 
CCCCC(CC)COC(=O)CCCCC(=O)OCC(CC)CCCC (configuration not stated) |  |  |  | 20 µM (inconclusive) | 
Nc1ccc(Oc2ccc(N)cc2)cc1 |  |  |  | 31.6 µM (inconclusive) | 
Cc1cccc(N2CCN(C(=O)CNC(=O)c3ccccc3)CC2)c1C | 19.2 µM (active) | 11.3 µM (active) | > 60 µM (not active) |  | 
Cn1nc(-c2ccc(N3CCCCC3)c(NC(=O)c3ccco3)c2)c2ccccc2c1=O |  |  |  |  | EC50 [7]: 1.23 µM (active); CC50 [8]: 26.3 µM (active); EC50 [9]: 9.07 µM (active); EC50 [10]: > 60 µM (not active); EC50 [11]: 7.35 µM (active)
COC(c1ccccc1Br)C(C)/C=C/CCO (configuration not stated) |  |  |  | 3.16 µM (inconclusive) | 
COC(C)(C)CCCC(C)C/C=C/C(C)=C/C(=O)OC(C)C (configuration not stated) |  |  |  | 31.6 µM (inconclusive) | 
CC1CCC(NC(=O)Cn2cc3c(n2)CCCC3)CC1 (configuration not stated) | 0.278 µM (active) | 3.02 µM (active) | 4.09 µM (active) |  | 
CCOC(=O)c1c(NC(=O)C(NCCN(C)C)c2ccccc2)sc2c1CCCC2 (configuration not stated) |  |  |  |  | CC50 [8]: 13.2 µM (active); IC50 [12]: > 20 µM (inactive); AC50 [13]: 10 µM (active)
O=c1cc(-c2ccc(O)cc2)oc2cc(O)ccc12 |  |  |  | 7.94 µM (inconclusive) | 
COn1c(-c2ccc(Cl)cc2)nc2ncccc21 | 0.106 µM (active) | 35.5 µM (active) | 51.9 µM (active) |  | 
CSc1nc2sc3c(c2c(=O)n1C)CCC(C)C3 (configuration not stated) | 5.51 µM (active) | 19.9 µM (active) | 15.3 µM (active) |  | 
Cc1cccc2c1-c1sc(C(=O)Nc3ccccc3N3CCN(C)CC3)cc1CO2 |  |  |  |  | CC50 [8]: 18.8 µM (active)
O=C(CCl)NCCCCCCCCCNC(=O)CCl |  |  |  |  | EC50 [14]: 18.8 µM (active); EC50 [15]: > 150 µM (not active); CC50 [8]: 19 µM (active); EC50 [16]: > 150 µM (not active); EC50 [17]: > 112 µM (not active); EC50 [18]: > 150 µM (not active); EC50 [19]: > 112 µM (not active)
